pIC50: −log10 of the molar value. Read-outs that look alike come from different tables or passages of the source. One block for each compound: values may come before it.
Assays:
aldose reductase = target: T1, aldose reductase (Rattus norvegicus, UniProt P07943); assay: Aldose reductase inhibition (optical density at 340 nm, Kinoshita's method); format: biochemical; conditions: for IC50: aldose reductase purified from rat lenses, pH 6.2, DL glyceraldehyde, NADPH, read-out: IC50(M) Molar concentration of a compound producing 50% inhibition of aldose reductase
T1 construct: Aldose reductase is purified from rat lenses; from tissue; host or cells: rat lens
Experimental: Aldose reductase is purified from rat lenses according to the method of Hoyman et al. [J. Biol. Chem., 240, 877 (1965)]. Action of the compounds (I) of this invention is evaluated by measurement of optical density according to the J.H. Kinoshita's method [Invest.

Acute toxicity test = conditions: mouse, in vivo, iv
Experimental: The male ddy-std. strain mice (4 weeks of age, weighing 19-21g) were placed in a breeding room of constant temperature and humidity (23+1°C, 55+5%) and fed freely pellet diet (CE-2, Clea Japan, Inc.) and water ad. libitum for a week. The mice showing the normal growth were selected for the experiment.
Test compounds are dissolved in distilled water and administered (i.v.) in a dose of 0.5ml/20g body weight.

IC50 (aldose reductase): 8.2e-10 M
Compound: O=C(O)CCCCCCCC(=O)N1C(c2cccc([N+](=O)[O-])c2)SC[C@H]1C(=O)O (stereo partly drawn) [compound 22]

Compound: O=C(O)[C@@H]1CSC(c2cccc([N+](=O)[O-])c2)N1C(=O)CCCCCCCC(=O)N1C(c2cccc([N+](=O)[O-])c2)SC[C@H]1C(=O)O (stereo partly drawn) [compound 47, (4R,4'R)-3,3'-(nonanedioyl)bis-[2-(3-nitrophenyl)-4-thiazolidinecarboxylic acid]]
LD50 (Acute toxicity test; male ddy-std. strain mice, dissolved in distilled water): 1000 to 1500 mg/kg
pIC50 (aldose reductase): 9.80

Compound: N#Cc1cccc(C2SC[C@@H](C(=O)O)N2C(=O)CCCCCCCCC(=O)N2C(c3cccc(C#N)c3)SC[C@H]2C(=O)O)c1 (stereo partly drawn) [compound 56]
LD50 (Acute toxicity test): 1000 to 1500 mg/kg
IC50 (aldose reductase): 1.7e-09 M

Compound: O=C(O)[C@@H]1CSC(c2cccc([N+](=O)[O-])c2)N1C(=O)CCCCCCCCC(=O)N1C(c2cccc([N+](=O)[O-])c2)SC[C@H]1C(=O)O (stereo partly drawn) [compound 57]
pIC50 (aldose reductase): 8.27

From patent EP0031104A1, “Thiazolidine compounds, processes for their preparation and pharmaceutical compositions containing them” (SANTEN PHARMACEUTICAL CO., LTD., priority 1979, dated 1981)
